# Earlier results as cited in patent publication US20230416754A1, “SINA MOLECULES, METHODS OF PRODUCTION AND USES THEREOF” (PHYZAT BIOPHARMACEUTICALS, LDA, priority 2020, published 2023).
# Like-named read-outs stand apart in the source and are kept apart here.
# Tested on: mice
smiles,measurement,setting,value
"CC(C)(C)NC[C@H](O)COc1nsnc1N1CCOCC1 [Timolol, timolol]",IOP,reserpine-treated animals,did not significantly affect IOP
same,IOP,saline control treated mice,significantly reduced IOP
